Results taken from PubChem BioAssay (NCI).
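Here, GI50 denotes the concentration required for 50% inhibition of growth. TGI denotes the concentration required for complete inhibition of growth.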

Experiments:
Experiment in all cases: NCI tumour cell line growth inhibition, 384-well format
MOLT-4 leukemia = test system: MOLT-4 leukemia
NCI-H226 lung = test system: NCI-H226 lung
HS 578T breast = test system: HS 578T breast
BT-549 breast = test system: BT-549 breast
SNB-75 CNS = test system: SNB-75 CNS
K-562 leukemia = test system: K-562 leukemia
SN12C renal = test system: SN12C renal
HCC-2998 colon = test system: HCC-2998 colon
A498 renal = test system: A498 renal
HCT-116 colon = test system: HCT-116 colon
A549 NSCLC = test system: A549 NSCLC
U251 glioblastoma = test system: U251 glioblastoma
SF-268 CNS = test system: SF-268 CNS
SK-MEL-5 melanoma = test system: SK-MEL-5 melanoma
LOX IMVI melanoma = test system: LOX IMVI melanoma
HOP-62 NSCLC = test system: HOP-62 NSCLC
NCI-H460 NSCLC = test system: NCI-H460 NSCLC
MDA-MB-231 breast = test system: MDA-MB-231 breast
NCI-H23 lung = test system: NCI-H23 lung
SK-MEL-2 melanoma = test system: SK-MEL-2 melanoma
SNB-19 CNS = test system: SNB-19 CNS
SW-620 colon = test system: SW-620 colon
UACC-62 melanoma = test system: UACC-62 melanoma
UACC-257 melanoma = test system: UACC-257 melanoma
KM12 colon = test system: KM12 colon
OVCAR-8 ovarian = test system: OVCAR-8 ovarian
NCI-H522 lung = test system: NCI-H522 lung
ACHN renal = test system: ACHN renal
SK-OV-3 ovarian = test system: SK-OV-3 ovarian
OVCAR-3 ovarian = test system: OVCAR-3 ovarian
DU-145 prostate = test system: DU-145 prostate
NCI-H322M lung = test system: NCI-H322M lung
EKVX NSCLC = test system: EKVX NSCLC
MALME-3M melanoma = test system: MALME-3M melanoma
MCF7 breast = test system: MCF7 breast
IGROV1 ovarian = test system: IGROV1 ovarian
CAKI-1 renal = test system: CAKI-1 renal
SK-MEL-28 melanoma = test system: SK-MEL-28 melanoma
RPMI-8226 leukemia = test system: RPMI-8226 leukemia
SF-295 CNS = test system: SF-295 CNS
M14 melanoma = test system: M14 melanoma
SF-539 CNS = test system: SF-539 CNS
HOP-92 NSCLC = test system: HOP-92 NSCLC
MDA-MB-435 melanoma = test system: MDA-MB-435 melanoma
UO-31 renal = test system: UO-31 renal
RXF 393 renal = test system: RXF 393 renal
PC-3 prostate = test system: PC-3 prostate
CCRF-CEM leukemia = test system: CCRF-CEM leukemia
OVCAR-4 ovarian = test system: OVCAR-4 ovarian
TK-10 renal = test system: TK-10 renal
HT29 colon = test system: HT29 colon
NCI/ADR-RES ovarian = test system: NCI/ADR-RES ovarian
COLO 205 colon = test system: COLO 205 colon
MDA-MB-468 breast = test system: MDA-MB-468 breast
HL-60(TB) leukemia = test system: HL-60(TB) leukemia
OVCAR-5 ovarian = test system: OVCAR-5 ovarian

## Cc1cc(-c2cnn3c(NCC4CC(C)(O)C4)cc(Oc4cccnc4)nc23)ccc1C(=O)NC1CC1 (configuration not stated)
MOLT-4 leukemia
  GI50: 22.7 nM
  TGI: 43.1 nM
NCI-H226 lung
  GI50: 77300 nM
  TGI: > 100000 nM
HS 578T breast
  GI50: 324 nM
  TGI: 38400 nM
BT-549 breast
  GI50: 139 nM
  TGI: > 100000 nM
SNB-75 CNS
  GI50: 1910 nM
  TGI: > 100000 nM
K-562 leukemia
  GI50: 818 nM
  TGI: > 100000 nM
SN12C renal
  GI50: 1810 nM
  TGI: > 100000 nM
HCC-2998 colon
  GI50: 5560 nM
  TGI: > 100000 nM
A498 renal
  GI50: 92.1 nM
  TGI: > 100000 nM
HCT-116 colon
  GI50: 49 nM
  TGI: > 100000 nM
A549 NSCLC
  GI50: 90.2 nM
  TGI: > 100000 nM
U251 glioblastoma
  GI50: 65 nM
  TGI: > 100000 nM
SF-268 CNS
  GI50: 2180 nM
  TGI: > 100000 nM
SK-MEL-5 melanoma
  GI50: 74.5 nM
  TGI: > 100000 nM
LOX IMVI melanoma
  GI50: 49.5 nM
  TGI: > 100000 nM
HOP-62 NSCLC
  GI50: 83.4 nM
  TGI: > 100000 nM
NCI-H460 NSCLC
  GI50: 188 nM
  TGI: 11900 nM
MDA-MB-231 breast
  GI50: 735 nM
  TGI: > 100000 nM
NCI-H23 lung
  GI50: 374 nM
  TGI: > 100000 nM
SK-MEL-2 melanoma
  GI50: 431 nM
  TGI: 3540 nM
SNB-19 CNS
  GI50: > 100000 nM
  TGI: > 100000 nM
SW-620 colon
  GI50: 62.1 nM
  TGI: > 100000 nM
UACC-62 melanoma
  GI50: 972 nM
  TGI: 62100 nM
UACC-257 melanoma
  GI50: 30700 nM
  TGI: > 100000 nM
KM12 colon
  GI50: 67.3 nM
  TGI: > 100000 nM
OVCAR-8 ovarian
  GI50: 80.4 nM
  TGI: > 100000 nM
NCI-H522 lung
  GI50: 467 nM
  TGI: 33000 nM
ACHN renal
  GI50: 906 nM
  TGI: > 100000 nM
SK-OV-3 ovarian
  GI50: 903 nM
  TGI: > 100000 nM
OVCAR-3 ovarian
  GI50: 173 nM
  TGI: 87900 nM
DU-145 prostate
  GI50: 68.9 nM
  TGI: > 100000 nM
NCI-H322M lung
  GI50: 4570 nM
  TGI: 21200 nM
EKVX NSCLC
  GI50: 1780 nM
  TGI: > 100000 nM
MALME-3M melanoma
  GI50: 1090 nM
  TGI: > 100000 nM
MCF7 breast
  GI50: 17200 nM
  TGI: > 100000 nM
IGROV1 ovarian
  GI50: 1010 nM
  TGI: > 100000 nM
CAKI-1 renal
  GI50: 560 nM
  TGI: 94500 nM
SK-MEL-28 melanoma
  GI50: 11300 nM
  TGI: > 100000 nM
RPMI-8226 leukemia
  GI50: 305 nM
  TGI: 995 nM
SF-295 CNS
  GI50: 1860 nM
  TGI: > 100000 nM
M14 melanoma
  GI50: 245 nM
  TGI: > 100000 nM
SF-539 CNS
  GI50: 45.5 nM
  TGI: > 100000 nM
HOP-92 NSCLC
  GI50: 4880 nM
  TGI: > 100000 nM
MDA-MB-435 melanoma
  GI50: 6160 nM
  TGI: > 100000 nM
UO-31 renal
  GI50: 686 nM
  TGI: > 100000 nM
RXF 393 renal
  GI50: 64.5 nM
  TGI: 2980 nM
PC-3 prostate
  GI50: 1840 nM
  TGI: > 100000 nM
CCRF-CEM leukemia
  GI50: 23.9 nM
  TGI: 50.7 nM
OVCAR-4 ovarian
  GI50: 5590 nM
  TGI: > 100000 nM
TK-10 renal
  GI50: 442 nM
  TGI: > 100000 nM
HT29 colon
  GI50: 2110 nM
  TGI: > 100000 nM
NCI/ADR-RES ovarian
  GI50: 5900 nM
  TGI: > 100000 nM
COLO 205 colon
  GI50: 39.4 nM
  TGI: > 100000 nM
MDA-MB-468 breast
  GI50: 352 nM
  TGI: 4670 nM
HL-60(TB) leukemia
  GI50: 29.3 nM
  TGI: 63.6 nM
OVCAR-5 ovarian
  GI50: 1980 nM
  TGI: > 100000 nM
